From BindingDB's records for PubMed 11454901 (Shionogi, 2001) come the findings set out here.

The test has as its target T1, Prostaglandin-H2 D-isomerase (Sus scrofa, UniProt Q29095).
T1 sequence (Q29095 whole entry): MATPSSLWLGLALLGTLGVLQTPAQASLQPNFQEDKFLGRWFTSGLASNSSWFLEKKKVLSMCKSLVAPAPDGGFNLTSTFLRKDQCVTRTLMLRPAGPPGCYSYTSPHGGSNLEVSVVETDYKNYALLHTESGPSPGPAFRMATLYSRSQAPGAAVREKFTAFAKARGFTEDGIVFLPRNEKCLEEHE

Broadly, the Ki is the equilibrium dissociation constant of an inhibitor or competing ligand from its target. A high value points to a looser hold on the target. In turn, `O=C(O)CCC/C=C\C[C@@H]1C(NS(=O)(=O)c2ccccc2)C2CC[C@@H]1C2` (single isomer, unassigned; (+)) [S 145] gave a Ki of 0.49 nM. In the case of `CC1(C)[C@H]2C[C@H](C/C=C\CCCC(=O)O)[C@@H](NC(=O)c3csc4ccc(O)cc34)[C@@H]1C2` it was 193 nM.
